Test results reported in publication PMC4303209, “A novel phosphatidylinositol 3-kinase (PI3K) inhibitor directs a potent FOXO-dependent, p53-independent cell cycle arrest phenotype characterized by the differential induction of a subset of FOXO-regulated genes” (Breast Cancer Research : BCR, 2014).

Test system: MCF-7 breast cancer cells
Assay: Microarray gene expression analysis (Agilent whole human genome 4 x 44K; compound vs DMSO, LIMMA log2 fold change)
Format: cell-based

Oc1cccc(-c2nc(N3CCOCC3)c3oc4ncccc4c3n2)c1 [PI-103]
PDGFRB log2FC (gene PDGFRB (5159), apoptosis genes): 0.024
PEG3 log2FC (gene PEG3 (5178), apoptosis genes): 0.129
PEG10 log2FC (gene PEG10 (23089), apoptosis genes): -0.104
PF4 log2FC (gene PF4 (5196), apoptosis genes): -0.033
PHLDA3 log2FC (gene PHLDA3 (23612), apoptosis genes): 0.113
PIK3CG log2FC (gene PIK3CG (5294), apoptosis genes): -0.004
PKP1 log2FC (gene PKP1 (5317), apoptosis genes): 0.031
PLEKHG5 log2FC (gene PLEKHG5 (57449), apoptosis genes): 0.199
PLSCR3 log2FC (gene PLSCR3 (57048), apoptosis genes): 0.125
POLB log2FC (gene POLB (5423), apoptosis genes): -0.249
log2FC (gene POLD4 (Gene 57804), cell cycle genes): 0.0256
POR log2FC (gene POR (5447), apoptosis genes): 0.107
POU3F4 log2FC (gene POU3F4 (5456), apoptosis genes): -0.017
POU4F1 log2FC (gene POU4F1, apoptosis genes): 0.019
log2FC (gene PPAT (Gene 10606), cell cycle genes): 0.08
log2FC (gene PPP1CA (Gene 5499), cell cycle genes): -0.18
log2FC (gene PPP2CA (Gene 5515), cell cycle genes): -0.52
PPP2R1A log2FC (gene PPP2R1A (5518), apoptosis genes): 0.062
PRAMEF8 log2FC (gene PRAMEF8 (391002), apoptosis genes): 0.060
PRAMEF10 log2FC (gene PRAMEF10 (343071), apoptosis genes): 0.251
log2FC (gene PRKACB (Gene 5567), cell cycle genes): 0.52
log2FC PRKAG3 (gene PRKAG3 (Gene 53632), cell cycle genes): -0.0237
PRKRA log2FC (gene PRKRA (8575), apoptosis genes): -0.093
PRLR log2FC (gene PRLR (5618), apoptosis genes): 0.00543
PROC log2FC (gene PROC (5624), apoptosis genes): 0.030
PROP1 log2FC (gene PROP1 (5626), apoptosis genes): 0.324
PSMA1 log2FC (gene PSMA1 (5682), apoptosis genes): -0.030
log2FC (gene PSMA2 (Gene 5683), cell cycle genes): 0.17
log2FC (gene PSMA3 (Gene 5684), cell cycle genes): 0.14
PSMA5 log2FC (gene PSMA5 (5686), apoptosis genes): -0.147
log2FC PSMA5 (gene PSMA5 (Gene 5686), cell cycle genes): -0.15
PSMA7 log2FC (gene PSMA7 (5688), apoptosis genes): -2.082
log2FC PSMA7 (gene PSMA7 (Gene 5688), cell cycle genes): -2.08
PSMB3 log2FC (gene PSMB3 (5691), apoptosis genes): 0.053
log2FC (gene PSMB4 (Gene 5692), cell cycle genes): 0.17
PSMB7 log2FC (gene PSMB7 (5695), apoptosis genes): -0.149
log2FC PSMB7 (gene PSMB7 (Gene 5695), cell cycle genes): -0.15
PSMB8 log2FC (gene PSMB8 (5696), apoptosis genes): -0.00568
PSMC4 log2FC (gene PSMC4 (5704), apoptosis genes): -0.023
log2FC PSMC4 (gene PSMC4 (Gene 5704), cell cycle genes): -0.0233
PSMD2 log2FC (gene PSMD2 (5708), apoptosis genes): 0.00374
PSMD13 log2FC (gene PSMD13 (5719), apoptosis genes): -0.172
log2FC (gene PSMD14 (Gene 10213), cell cycle genes): 0.15
log2FC (gene PSME1 (Gene 5720), cell cycle genes): 0.31
PSME2 log2FC (gene PSME2 (5721), apoptosis genes): 0.039
log2FC (gene PTTG1 (Gene 9232), cell cycle genes): -0.21
PYCARD log2FC (gene PYCARD (29108), apoptosis genes): -0.121
log2FC (gene RAB11FIP3 (Gene 9727), cell cycle genes): -0.14
log2FC RAD51C (gene RAD51C (Gene 5889), cell cycle genes): -0.24
log2FC RAE1 (gene RAE1 (Gene 8480), cell cycle genes): -0.15
RAF1 log2FC (gene RAF1 (5894), apoptosis genes): -0.081
log2FC (gene RALA (Gene 5898), cell cycle genes): 0.34
log2FC (gene RALB (Gene 5899), cell cycle genes): 0.08
RAMP2 log2FC (gene RAMP2 (10266), apoptosis genes): 0.059
log2FC RANGAP1 (gene RANGAP1 (Gene 5905), cell cycle genes): -0.09
RAPSN log2FC (gene RAPSN (5913), apoptosis genes): -0.146
RARB log2FC (gene RARB (5915), apoptosis genes): 0.00425
RASSF6 log2FC (gene RASSF6 (166824), apoptosis genes): 0.020
log2FC (gene RBBP8 (Gene 5932), cell cycle genes): 0.34
log2FC (gene RBL1 (Gene 5933), cell cycle genes): 0.17
log2FC (gene RBM7 (Gene 10179), cell cycle genes): 0.23
log2FC (gene RCC1 (Gene 1104), cell cycle genes): -0.14
log2FC REEP4 (gene REEP4 (Gene 80346), cell cycle genes): 0.28
RET log2FC (gene RET (5979), apoptosis genes): -0.025
RHOT2 log2FC (gene RHOT2 (89941), apoptosis genes): 0.051
log2FC RPA2 (gene RPA2 (Gene 6118), cell cycle genes): -0.25
RPS3 log2FC (gene RPS3 (6188), apoptosis genes): -0.043
RPS6KA2 log2FC (gene RPS6KA2 (6196), apoptosis genes): 0.189
log2FC (gene RPS6KB1 (Gene 6198), cell cycle genes): 0.25
RRN3 log2FC (gene RRN3 (653390), apoptosis genes): 0.004
log2FC (gene RSPO1 (Gene 284654), cell cycle genes): -0.11
RYR2 log2FC (gene RYR2 (6262), apoptosis genes): -0.075
S100A9 log2FC (gene S100A9 (6280), apoptosis genes): 0.057
S100A14 log2FC (gene S100A14 (57402), apoptosis genes): 0.033
log2FC (gene SART1 (Gene 9092), cell cycle genes): -0.00235
SCIN log2FC (gene SCIN (85477), apoptosis genes): -0.013
log2FC (gene SEH1L (Gene 81929), cell cycle genes): -0.57
SEMA5A log2FC (gene SEMA5A (9037), apoptosis genes): -0.022
log2FC SENP2 (gene SENP2 (Gene 59343), cell cycle genes): -0.06
SERINC3 log2FC (gene SERINC3 (10955), apoptosis genes): 0.115
SERPINE1 log2FC (gene SERPINE1 (5054), apoptosis genes): -0.018
log2FC (gene SESN1 (Gene 27244), cell cycle genes): -0.06
SHF log2FC (gene SHF (90525), apoptosis genes): 0.016
SKIL log2FC (gene SKIL (6498), apoptosis genes): 0.039
log2FC SKIL (gene SKIL (Gene 6498), cell cycle genes): 0.04
log2FC (gene SLBP (Gene 7884), cell cycle genes): 0.11
SLC25A6 log2FC (gene SLC25A6 (293), apoptosis genes): -0.018
log2FC SLC26A8 (gene SLC26A8 (Gene 116369), cell cycle genes): -0.065
SLC40A1 log2FC (gene SLC40A1 (30061), apoptosis genes): -0.00212
SMAD1 log2FC (gene SMAD1 (4086), apoptosis genes): -0.215
SMNDC1 log2FC (gene SMNDC1 (10285), apoptosis genes): -0.319
SOD1 log2FC (gene SOD1 (6647), apoptosis genes): 0.105
SOS1 log2FC (gene SOS1 (6654), apoptosis genes): 0.010
SOX8 log2FC (gene SOX8 (30812), apoptosis genes): -0.456
log2FC SPO11 (gene SPO11 (Gene 23626), cell cycle genes): 0.0237
SPTAN1 log2FC (gene SPTAN1 (6709), apoptosis genes): 0.362
log2FC (gene SRC (Gene 6714), cell cycle genes): -0.35
log2FC (gene STAG1 (Gene 10274), cell cycle genes): 0.32
STK3 log2FC (gene STK3 (6788), apoptosis genes): 0.109
SULF1 log2FC (gene SULF1 (23213), apoptosis genes): -0.171
log2FC (gene SUPT5H (Gene 6829), cell cycle genes): 0.00774
log2FC (gene SUV39H2 (Gene 79723), cell cycle genes): -0.56
SYCP2 log2FC (gene SYCP2 (10388), apoptosis genes): 0.019
log2FC SYCP2 (gene SYCP2 (Gene 10388), cell cycle genes): 0.02
log2FC SYCP3 (gene SYCP3 (Gene 50511), cell cycle genes): -0.03
log2FC (gene TAF2 (Gene 6873), cell cycle genes): 0.21
log2FC TAF6 (gene TAF6 (Gene 6878), cell cycle genes): 0.22
log2FC (gene TAOK2 (Gene 9344), cell cycle genes): -0.25
TEK log2FC (gene TEK (7010), apoptosis genes): -0.024
log2FC (gene TEX14 (Gene 56155), cell cycle genes): 0.17
log2FC (gene TEX15 (Gene 56154), cell cycle genes): 0.23
TFAP2D log2FC (gene TFAP2D (83741), apoptosis genes): 0.021
log2FC (gene TGFA (Gene 7039), cell cycle genes): -0.53
TGFB2 log2FC (gene TGFB2 (7042), apoptosis genes): -0.026
log2FC TGFB2 (gene TGFB2 (Gene 7042), cell cycle genes): -0.0258
THEM4 log2FC (gene THEM4 (117145), apoptosis genes): -0.280
log2FC THOC5 (gene THOC5 (Gene 8563), cell cycle genes): 0.0165
TMBIM4 log2FC (gene TMBIM4 (51643), apoptosis genes): -0.154
log2FC (gene TMEM67 (Gene 91147), cell cycle genes): 0.17
TMEM102 log2FC (gene TMEM102 (284114), apoptosis genes): 0.338
TNFRSF1B log2FC (gene TNFRSF1B (7133), apoptosis genes): -0.040
TNFRSF8 log2FC (gene TNFRSF8 (943), apoptosis genes): 0.099
TNFRSF10C log2FC (gene TNFRSF10C (8794), apoptosis genes): 0.011
TNFSF8 log2FC (gene TNFSF8 (944), apoptosis genes): -0.011
TNFSF9 log2FC (gene TNFSF9 (8744), apoptosis genes): 0.192
TNFSF10 log2FC (gene TNFSF10 (8743), apoptosis genes): 0.00148
TNFSF12 log2FC (gene TNFSF12 (8742), apoptosis genes): 0.353
TNFSF14 log2FC (gene TNFSF14 (8740), apoptosis genes): 0.027
TNFSF15 log2FC (gene TNFSF15 (9966), apoptosis genes): 0.054
TNFSF18 log2FC (gene TNFSF18 (8995), apoptosis genes): 0.071
log2FC (gene TP73 (Gene 7161), cell cycle genes): -0.25
log2FC (gene TPD52L1 (Gene 7164), cell cycle genes): 0.15
TPX2 log2FC (gene TPX2 (22974), apoptosis genes): -0.00173
TRAF2 log2FC (gene TRAF2 (7186), apoptosis genes): -0.347
TRAF3IP2 log2FC (gene TRAF3IP2 (10758), apoptosis genes): -0.037
log2FC TRIP13 (gene TRIP13 (Gene 9319), cell cycle genes): -0.38
log2FC (gene TUBGCP6 (Gene 85378), cell cycle genes): -0.19
TXNDC5 log2FC (gene TXNDC5 (81567), apoptosis genes): -0.039
log2FC TYMS (gene TYMS (Gene 7298), cell cycle genes): -0.08
UBD log2FC (gene UBD (10537), apoptosis genes): -0.037
UBE2V2 log2FC (gene UBE2V2 (7336), apoptosis genes): -0.365
UNC13B log2FC (gene UNC13B (10497), apoptosis genes): 0.046
VDAC2 log2FC (gene VDAC2 (7417), apoptosis genes): -0.094
VIM log2FC (gene VIM (7431), apoptosis genes): 0.122
VIP log2FC (gene VIP (7432), apoptosis genes): -0.302
VNN1 log2FC (gene VNN1 (8876), apoptosis genes): -0.010
log2FC (gene VRK1 (Gene 7443), cell cycle genes): 0.16
WNK3 log2FC (gene WNK3 (65267), apoptosis genes): -0.015
log2FC (gene WTAP (Gene 9589), cell cycle genes): -0.47
log2FC (gene YY1AP1 (Gene 55249), cell cycle genes): 0.31
ZBTB16 log2FC (gene ZBTB16 (7704), apoptosis genes): -0.00549
log2FC ZC3H12D (gene ZC3H12D (Gene 85313), cell cycle genes): -0.0743
log2FC (gene ZC3HC1 (Gene 51530), cell cycle genes): 0.16
ZNF205 log2FC (gene ZNF205 (7755), apoptosis genes): -0.247
ZNF443 log2FC (gene ZNF443 (10224), apoptosis genes): -0.204
log2FC (gene ZNF503 (Gene 84858), cell cycle genes): -0.12
ZNF622 log2FC (gene ZNF622 (90441), apoptosis genes): -0.120
